Reference: patent publication US12023360B2, “Composition and methods of screening” (OPTIBIOTIX LIMITED, priority 2013, dated 2024)

Experiments:
Format in all cases: cell-based
Clostridia = assay: Anaerobic culture utilisation, FISH enumeration at 24 h: Clostridia; details: inoculum 7.55
Procedure: (§1) In these experiments, anaerobic cultures were tested to evaluate the in vitro utilisation of a novel Lactobacillus reuteri galactooligosaccharide by monitoring the populations of gut bacterial groups at 24 hours using fluorescent in situ hybridisation, and short-chain fatty acid (SCFA). Fructooligosaccharides (FOS), melibiose and raffinose were used as reference carbohydrates.

E. coli = assay: Anaerobic culture utilisation, FISH enumeration at 24 h: E. coli; details: inoculum 8.14
Procedure: as §1

Bifidobacteria = assay: Anaerobic culture utilisation, FISH enumeration at 24 h: Bifidobacteria; details: inoculum 6.85
Procedure: as §1

Lactobacilli = assay: Anaerobic culture utilisation, FISH enumeration at 24 h: Lactobacilli; details: inoculum 7.15
Procedure: as §1

Bacteroides = assay: Anaerobic culture utilisation, FISH enumeration at 24 h: Bacteroides; details: inoculum 7.98
Procedure: as §1

Eubacteria = assay: Anaerobic culture utilisation, FISH enumeration at 24 h: Eubacteria; details: inoculum 8.06
Procedure: as §1

Compound	Clostridia, 24 (Clostridia)	E. coli, 24 (E. coli)	Bifidobacteria, 24 (Bifidobacteria)	Lactobacilli, 24 (Lactobacilli)	Bacteroides, 24 (Bacteroides)	Eubacteria, 24 (Eubacteria)
OC[C@H]1O[C@H](OCC2O[C@@H](O)[C@H](O)[C@@H](O)[C@@H]2O)[C@H](O)[C@@H](O)[C@H]1O (stereo partly shown) [Melibiose, melibiose]	7.65	7.66	7.33	7.43	7.9	7.84
OC[C@H]1O[C@H](OC[C@H]2O[C@H](O[C@]3(CO)O[C@H](CO)[C@@H](O)[C@@H]3O)[C@H](O)[C@@H](O)[C@@H]2O)[C@H](O)[C@@H](O)[C@H]1O [Raffinose, raffinose]	7.81	–	–	–	–	–
